Earlier results as cited in article PMC7904743, “WIDOCK: a reactive docking protocol for virtual screening of covalent inhibitors” (Journal of Computer-Aided Molecular Design, 2021).
Where two headings read alike, the source gives them in different places.

Columns and labels:
OTUB2 = settings: experimental actives if % labeling higher than 50%, cited from earlier work
NUDT7 = settings: protein labeling at 200 μM; experimental actives if % labeling higher than 50%; cited from earlier work
[1] = thiol reactivity, cited from earlier work
[2] = natural log of average rate constant k
[3] = natural logarithm of average rate constant
[4] = natural log of average kinetic rate constant
[5] = natural log of average rate constant

Row | Structure (SMILES) | OTUB2 % labeling (OTUB2) [%] | NUDT7 % labeling (NUDT7) [%] | ln(avg k) [1, 2] | ln(avg k) [1, 3] | OTUB2 % labeling (OTUB2; OTUB2 protein labeling) [%] | ln(avg k) [1, 4] | ln(avg k) [1, 5]
1 | O=C(CCl)N(CC(F)(F)F)c1ccc(Cl)cc1 [PCM-0102155, O=C(CCl)N(CC(F)(F)F)c1ccc(Cl)cc1] | 0 | 79 | -15.883 | -15.883 |  |  | 
2 | O=C(CCl)Nc1nccs1 [PCM-0102242, O=C(CCl)Nc1nccs1] | 0 | 0 | -16.213 | -16.213 |  |  | 
3 | Cn1nc(-c2ccc(Cl)cc2)cc1NC(=O)CCl [PCM-0102296, Cn1nc(-c2ccc(Cl)cc2)cc1NC(=O)CCl] | 38 | 54 | -15.558 | -15.558 |  |  | 
4 | Cc1cc(C)cc(NC(=O)CCl)c1 [PCM-0102394, Cc1cc(C)cc(NC(=O)CCl)c1] | 22 | 0 | -15.891 | -15.891 |  |  | 
5 | O=C(CCl)Nc1ccccc1C(=O)O [PCM-0102307, O=C(CCl)Nc1ccccc1C(=O)O] | 0 | 0 | -17.138 | -17.138 |  |  | 
6 | O=C(CCl)Nc1cccc2ccccc12 [PCM-0102396, O=C(CCl)Nc1cccc2ccccc12] | 54 | 12 | -16.060 | -16.060 |  |  | 
7 | O=C(CCl)Nc1ccc2c(c1)OC1(CCCCC1)O2 [PCM-0102104, O=C(CCl)Nc1ccc2c(c1)OC1(CCCCC1)O2] | 47 | 8 | -15.658 | -15.658 |  |  | 
8 | O=C(CCl)N1CCN(S(=O)(=O)c2ccc(F)cc2)CC1 [PCM-0102237, O=C(CCl)N1CCN(S(=O)(=O)c2ccc(F)cc2)CC1] | 0 | 6 | -16.014 | -16.014 |  |  | 
9 | Cc1cccc(NC(=O)CCl)c1 [PCM-0102116, Cc1cccc(NC(=O)CCl)c1] | 11 | 0 | -15.855 | -15.855 |  |  | 
10 | O=C(Nc1ccccc1O)C1CCN(C(=O)CCl)CC1 [PCM-0102389, O=C(Nc1ccccc1O)C1CCN(C(=O)CCl)CC1] | 14 | 10 | -15.332 | -15.332 |  |  | 
11 | O=C(CCl)NCc1ccc(Cl)s1 [PCM-0103080, O=C(CCl)NCc1ccc(Cl)s1] |  | 0 |  |  | 79 | -16.506 | -16.506
12 | CC(C)C(C#N)N1CCN(C(=O)CCl)CC1 (centres unmarked) [PCM-0102263, CC(C)C(C#N)N1CCN(C(=O)CCl)CC1] | 31 | 17 | -14.716 | -14.716 |  |  | 
13 | O=C(CCl)N(C1=CCCCC1)C1CC1 [PCM-0102745, O=C(CCl)N(C1=CCCCC1)C1CC1] |  | 0 |  |  | 0 | -16.466 | -16.466
14 | CC1(C)C2CCC1(C)C(NC(=O)CCl)C2 (centres unmarked) [PCM-0102315, CC1(C)C2CCC1(C)C(NC(=O)CCl)C2] | 0 | 0 | -16.417 | -16.417 |  |  | 
15 | Cc1ccc(S(=O)(=O)N2CCN(C(=O)CCl)CC2)c(C)c1 [PCM-0102628, Cc1ccc(S(=O)(=O)N2CCN(C(=O)CCl)CC2)c(C)c1] | 0 | 0 | -15.546 | -15.546 |  |  | 
16 | O=C(CCl)N1CCc2sccc2C1c1ccccc1 (centres unmarked) [PCM-0103024, O=C(CCl)N1CCc2sccc2C1c1ccccc1] |  | 69 |  |  | 0 | -15.442 | -15.442
17 | CC1CCN(C(=O)CCl)c2ccccc2S1 (centres unmarked) [PCM-0102216, CC1CCN(C(=O)CCl)c2ccccc2S1] | 0 | 32 | -16.224 | -16.224 |  |  | 
18 | CC1CC(=O)Nc2ccccc2N1C(=O)CCl (centres unmarked) [PCM-0102697, CC1CC(=O)Nc2ccccc2N1C(=O)CCl] | 0 | 22 | -15.686 | -15.686 |  |  | 

Row | Structure (SMILES) | OTUB2 % labeling (OTUB2) [%] | NUDT7 % labeling (NUDT7) [%] | ln(avg k) [1, 2] | ln(avg k) [1, 3] | OTUB2 % labeling (OTUB2; OTUB2 protein labeling) [%] | ln(avg k) [1, 4] | ln(avg k) [1, 5]
19 | COc1ccc2nc(NC(=O)CCl)sc2c1 [PCM-0102330, COc1ccc2nc(NC(=O)CCl)sc2c1] | 0 | 100 | -15.593 | -15.593 |  |  | 
20 | CC1CCc2c(sc(NC(=O)CCl)c2C#N)C1 (centres unmarked) [PCM-0102420, CC1CCc2c(sc(NC(=O)CCl)c2C#N)C1] | 0 | 47 | -16.452 | -16.452 |  |  | 
21 | O=C(CCl)N1CC=C(c2ccccc2)CC1 [PCM-0103038, O=C(CCl)N1CC=C(c2ccccc2)CC1] |  | 0 |  |  | 9 | -16.846 | -16.846
22 | O=C(CCl)Nc1oncc1-c1ccccc1 [PCM-0102746, O=C(CCl)Nc1oncc1-c1ccccc1] |  | 0 |  |  | 64 | -16.489 | -16.489
23 | CC1CCC(NC(=O)CCl)CC1 (centres unmarked) [PCM-0102913, CC1CCC(NC(=O)CCl)CC1] |  | 0 |  |  | 8 | -16.529 | -16.529
24 | O=C(CCl)Nc1ccccc1 [PCM-0102658, O=C(CCl)Nc1ccccc1] | 0 | 0 | -16.281 | -16.281 |  |  | 
25 | CN1CCN(C(=O)CCl)CC1 [PCM-0102921, CN1CCN(C(=O)CCl)CC1] |  | 0 |  |  | 0 | -17.315 | -17.315
26 | O=C(CCl)N1CCC(c2nc3ccccc3s2)CC1 [PCM-0103068, O=C(CCl)N1CCC(c2nc3ccccc3s2)CC1] |  | 65 |  |  | 0 | -15.772 | -15.772
27 | CN(C(=O)CCl)c1ccccc1 [PCM-0102368, CN(C(=O)CCl)c1ccccc1] | 0 | 0 | -15.648 | -15.648 |  |  | 
28 | O=C(CCl)NC1CCCC1 [PCM-0102250, O=C(CCl)NC1CCCC1] | 0 | 0 | -16.419 | -16.419 |  |  | 
29 | O=C(CCl)N1CCC2(CC1)OCCO2 [PCM-0102823, O=C(CCl)N1CCC2(CC1)OCCO2] |  | 0 |  |  | 0 | -16.068 | -16.068
30 | O=C(CCl)N1N=C(c2ccco2)CC1c1ccco1 (centres unmarked) [PCM-0102380, O=C(CCl)N1N=C(c2ccco2)CC1c1ccco1] | 0 | 54 | -15.395 | -15.395 |  |  | 
31 | O=C(CCl)Nc1ccc(F)cc1F [PCM-0103004, O=C(CCl)Nc1ccc(F)cc1F] |  | 0 |  |  | 26 | -15.968 | -15.968
32 | O=C(CCl)Nc1nnc(C2CC2)o1 [PCM-0102187, O=C(CCl)Nc1nnc(C2CC2)o1] | 0 | 0 | -17.207 | -17.207 |  |  | 
33 | O=C(CCl)NC1CCS(=O)(=O)C1 (centres unmarked) [PCM-0102138, O=C(CCl)NC1CCS(=O)(=O)C1] | 0 | 0 | -15.936 | -15.936 |  |  | 
34 | O=C(CCl)N1CCN(Cc2cccc(Cl)c2)CC1 [PCM-0102269, O=C(CCl)N1CCN(Cc2cccc(Cl)c2)CC1] | 19 | 0 | -15.481 | -15.481 |  |  | 
35 | CS(=O)(=O)c1ccc(NC(=O)CCl)cc1 [PCM-0102335, CS(=O)(=O)c1ccc(NC(=O)CCl)cc1] | 30 | 6 | -15.005 | -15.005 |  |  | 
